From US20080098491A1, “MOUSE MODELS TO STUDY CACHEXIA” (ZOLTAN LABORATORIES LLC, priority 2006, published 2008)

Columns and labels:
[1] = tested on: MXT mouse mammary tumor; assay: Cisplatin-treated MXT mouse mammary tumor model, PALP and TF (Example 9, Experiment 1); format: in vivo; conditions: for Body weight (total weight minus tumor weight) / Total weight / Tumor weight: every second day from day 7 (7-times): cisplatin 3-mg/kg i.p., purified PALP 16, commercial PALP 60, TF 14 mg/kg s.c.
Excerpt: (§1) The B16 mouse melanoma and MXT mouse mammary tumors were developed in first generation hybrid BDF1 (C57 B1 female×DBA/2 male) adult female mice kept at specified pathogen free (SPF) hygienic level. These models were chosen for these experiments because these mice have the complete immune system, and both tumors grow very rapidly. To develop the tumors, B16 and MXT tumor tissue fragments of about 0.1-cm^3 were surgically implanted subcutaneously into the intrascapular region to develop the tumors. Each tumor fragment contained about 1-1.5×10^6 cells. The animals were kept in macrolon cages on ventilated rack at 22-24° C. (50-60% humidity) with lighting regimen of 12/12 h light/dark. The animals had free access to tap water and were fed with sterilized standard diet (Charles River VRF1, Germany) ad libitum. The animals were taken care of according to the “Guiding Principle for the care and use of Animals” based upon the Helsinki declaration and they were approved by the local ethical committee.
(§2) In case of both tumor models the tumor size was usually in the range of 0.2 to 0.5-g when treatments started 7-11 days after tumor implantation; the mice were selected so that in the same treatment group the difference in tumor size was no greater than 0.1 gram. In some experiments, the test proteins were suspended in physiological saline and injected in 50-μl volume subcutaneously in the vicinity of tumor (within 1-cm of tumor margin). In other experiments, the test proteins were dispersed in Vaselinum cholesteratum and used topically; 150-mg cream was applied on the tumor and the vicinity of tumor area (with about 0.5-cm of the tumor margin). The tumor volume was determined by using calipers; this technique is well known to one having ordinary skill in the art. Tumor volume was calculated according to the generally accepted formula: V=a^2×b×7r/6, where “a” and “b” mean the shortest and longest diameter, respectively, of the measured tumor.
Experiment 1. The mouse MXT mammary tumor was developed as described in Example 3. In the first group, animals remained untreated during the whole observation period. In the second group, starting on the 7th day after tumor implantation, mice were intraperitoneally (i.p.) administered 3-mg per 1-kg total weight of cisplatin 7-times every second day. In the third group, starting on the 7th day after tumor implantation, mice were simultaneously administered 3-mg per 1-kg of cisplatin i.p. and 16-mg per 1-kg of purified PALP s.c. In the fourth group, starting on the 7th day after tumor implantation, mice were simultaneously administered 3-mg per 1-kg of cisplatin i.p. and 60-mg per 1-kg of commercial PALP s.c. In the fifth group, starting on the 7th day after tumor implantation, mice were simultaneously administered 3-mg per 1-kg of cisplatin i.p. and 14-mg per 1-kg of commercial TF (T 3309 in the Sigma catalog) s.c. Each treatment was performed 7-times on every second day. Each group included 7 animals. The mean values for total weight, tumor weight and body weight (the difference between total and tumor weight) are shown in TABLE 6.

[2] = tested on: MXT mouse mammary tumor; assay: Cisplatin-treated MXT mouse mammary tumor model, CCDTHT (Example 10); format: in vivo; conditions: every second day from day 7: cisplatin 3-mg/kg i.p., CCDTHT 4.6-mg/kg s.c., highly purified PALP 14-mg/kg s.c.
Excerpt: as §1, §2
The mouse MXT mammary tumor was developed as described in Example 3. In the first group, animals remained untreated during the whole observation period. In the second group, starting on the 7th day after tumor implantation, mice were administered 3-mg per 1-kg of cisplatin i.p. 9-times every second day. In the third group, starting on the 7th day after tumor implantation, mice were simultaneously administered 3-mg per 1-kg of cisplatin i.p. and 4.6-mg per 1-kg of CCDTHT s.c. In the fourth group, starting on the 7th day after tumor implantation, mice were simultaneously administered 3-mg per 1-kg of cisplatin i.p. as well as 4.6-mg per 1-kg of CCDTHT s.c. and 14-mg per 1-kg of highly purified PALP s.c. Each treatment was performed 9-times on every second day. Each group included 7 animals. The mean values for total weight, tumor weight and body weight (the difference between total and tumor weight) are shown in TABLE 8.

[3] = day 7 after tumor transplantation
[4] = day 11 after tumor transplantation
[5] = day 14 after tumor transplantation
[6] = day 16 after tumor transplantation
[7] = day 18 after tumor transplantation
[8] = day 21 after tumor transplantation

Structure (SMILES): N.N.[Cl][Pt][Cl] [Cisplatin, cisplatin]
- Body weight (total weight minus tumor weight) [1, 3]: 22.45 g
- Total weight [1, 3]: 22.70 g
- Tumor weight [1, 3]: 0.25 g
- Body weight (total weight minus tumor weight) [1, 4]: 22.10 g
- Total weight [1, 4]: 23.10 g
- Tumor weight [1, 4]: 1.00 g
- Body weight (total weight minus tumor weight) [1, 5]: 19.50 g
- Total weight [1, 5]: 21.70 g
- Tumor weight [1, 5]: 2.20 g
- Body weight (total weight minus tumor weight) [1, 6]: 16.90 g
- Total weight [1, 6]: 20.10 g
- Tumor weight [1, 6]: 3.20 g
- Body weight (total weight minus tumor weight) [1, 7]: 16.30 g
- Total weight [1, 7]: 20.10 g
- Tumor weight [1, 7]: 3.80 g
- Body weight (total weight minus tumor weight) [1, 8]: 15.10 g
- Total weight [1, 8]: 19.20 g
- Tumor weight [1, 8]: 4.10 g
- Decrease in body weight ([1]; from day 11 to day 23, cisplatin 3-mg/kg i.p. every second day): ~33%
- Body weight (total weight minus tumor weight) ([2]; day 7 after transplantation): 21.95 g
- Total weight ([2]; day 7 after transplantation): 22.20 g
- Tumor weight ([2]; day 7 after transplantation): 0.25 g
- Body weight (total weight minus tumor weight) ([2]; day 9 after transplantation): 22.45 g
- Total weight ([2]; day 9 after transplantation): 23.00 g
- Tumor weight ([2]; day 9 after transplantation): 0.55 g
- Body weight (total weight minus tumor weight) ([2]; day 11 after transplantation): 21.75 g
- Total weight ([2]; day 11 after transplantation): 23.10 g
- Tumor weight ([2]; day 11 after transplantation): 1.35 g
- Body weight (total weight minus tumor weight) ([2]; day 15 after transplantation): 20.25 g
- Total weight ([2]; day 15 after transplantation): 22.90 g
- Tumor weight ([2]; day 15 after transplantation): 2.65 g
- Body weight (total weight minus tumor weight) ([2]; day 17 after transplantation): 17.85 g
- Total weight ([2]; day 17 after transplantation): 21.60 g
- Tumor weight ([2]; day 17 after transplantation): 3.75 g
- Body weight (total weight minus tumor weight) ([2]; day 21 after transplantation): 15.95 g
- Total weight ([2]; day 21 after transplantation): 20.60 g
- Tumor weight ([2]; day 21 after transplantation): 4.65 g
